{"source": "patent US5068334A", "about": "“Pharmaceutical compositions containing quinolin-2,5-diones, new quinolin-2,5-diones and processes for the preparation thereof” (Karl Thomae GmbH, priority 1988, dated 1991)", "key": {"[1]": {"tested_on": "body temperature of normothermic rats", "experiment": "effect on body temperature of normothermic rats", "format": "in vivo", "settings": "Rattus norvegicus, po, oesophageal tube, 1% methylcellulose, rectal temperature, read-out: ED^-1.5° C. (dosage which lowered the body temperature by 1.5° C.)", "method": "4. The effect on body temperature was investigated on normothermic rats weighing between 120 and 140 g. The test substances were administered by oesophageal tube as a trituration in 1% methylcellulose (1.0 ml/100 g of animal). From the lowering of rectal temperature observed after various dosages, the ED^-1.5° C. was calculated by linear regression analysis as the dosage which lowered the body temperature by 1.5° C."}, "[2]": {"tested_on": "mechanically induced pain", "experiment": "effect on mechanically induced pain, tail clamp method (HAFFNER)", "format": "in vivo", "settings": "Mus musculus, po, 0.5 h, male mice, oesophageal tube, 1% methylcellulose, 30 minute intervals, read-out: ED^50 (percentage of animals which showed no pain-reaction)"}, "[3]": {"tested_on": "pain of inflammation in rats", "experiment": "effect on the pain of inflammation in rats (RANDALL and SELITTO)", "format": "in vivo, rat", "settings": "sc, male rats, oesophageal tube, 1% methylcellulose, after subcutaneous yeast", "method": "1. The effect on the pain of inflammation in rats was tested using the method of RANDALL and SELITTO (Arch. int. Pharmacodyn. 111, 409 (1957)). The test substances were administered to male rats weighing between 100 and 130 g as a trituration in 1% methylcellulose (1.0 ml/100 g of animal) 90 or 135 minutes after subcutaneous administration of yeast by oesophageal tube. From the pain threshold measured 90 or 45 minutes after administration of the various doses, the ED^50 was determined by linear regression analysis as the dosage which raised the pain threshold by 50%. The following"}, "acute toxicity in rats": {"experiment": "acute toxicity in rats", "settings": "in vivo, po; rat, both sexes, oesophageal tube, death within 14 days", "method": "(§1) 5. The acute toxicity was determined in mice or rats of both sexes with an average weight of 20 g. The test substances were administered by oesophageal tube as a trituration in 1% methylcellulose (0.2 ml/10 g of animal). Wherever possible the LD50 was calculated according to LITCHFIELD and WILCOXON (J. Pharmacol. exp. Therap. 96, 99 (1949)) from the percentage of animals which died within 14 days after receiving various doses."}, "[4]": {"tested_on": "heat-induced pain in mice", "experiment": "effect on heat-induced pain in mice (CHEN and BECKMAN)", "format": "in vivo", "settings": "Mus musculus, po; male mice, oesophageal tube, 1% methylcellulose; read-out: ED^100 (dosage which doubled the reaction time)", "method": "2. The effect on heat-induced pain in mice was investigated using the method of CHEN and BECKMAN (Science 113, 631 (1951). Male mice with an average weight of 20 g were given the test substances as a trituration in 1% methylcellulose (0.1 ml/10 g of animal by oesophageal tube. From the lengthening of the individual reaction time observed after various doses, the ED^100 was calculated by linear regression analysis as the dosage which doubled the reaction time."}, "acute toxicity in mice": {"experiment": "acute toxicity in mice", "settings": "in vivo, po; mouse, both sexes, oesophageal tube, death within 14 days; read-out: LD^50 Mouse", "method": "as §1"}, "[5]": {"settings": "0.75 h, pain threshold 45 minutes after administration, read-out: ED^50 after 45 minutes (dosage which raised the pain threshold by 50%)"}, "[6]": {"settings": "1.5 h, pain threshold 90 minutes after administration, read-out: ED^50 after 90 minutes (dosage which raised the pain threshold by 50%)"}}, "note": "Read-outs that look alike come from different tables or passages of the source.", "data": [{"smiles": "Cc1cc2c(n(C)c1=O)CCCC2=O", "note": "[Substance F, 1,3-dimethyl-7,8-dihydro-2,5(1H,6H)-quinolinedione]", "values": [{"measurement": "ED (-1.5 degC)", "setting": "[1]", "result": 36, "unit": "mg/kg"}, {"measurement": "ED50", "setting": "[2]", "result": 86, "unit": "mg/kg"}, {"measurement": "ED50", "setting": "[3]; [5]", "result": 12.5, "unit": "mg/kg"}, {"measurement": "ED50", "setting": "[3]; [6]", "result": 12.1, "unit": "mg/kg"}, {"measurement": "LD50 at 336 h", "setting": "acute toxicity in rats", "result": 396, "unit": "mg/kg"}, {"measurement": "ED100", "setting": "[4]", "result": 109, "unit": "mg/kg"}, {"measurement": "LD50 at 336 h", "setting": "acute toxicity in mice", "result": 296, "unit": "mg/kg"}]}, {"smiles": "CCn1c2c(c(C)cc1=O)C(=O)CCC2", "note": "[Substance G, 1-ethyl-4-methyl-7,8-dihydro-2,5(1H,6H)-quinolinedione]", "values": [{"measurement": "ED (-1.5 degC)", "setting": "[1]", "result": 11, "unit": "mg/kg"}, {"measurement": "ED50", "setting": "[2]", "result": 26, "unit": "mg/kg"}, {"measurement": "ED50", "setting": "[3]; [5]", "result": 5.1, "unit": "mg/kg"}, {"measurement": "ED50", "setting": "[3]; [6]", "result": 5.9, "unit": "mg/kg"}, {"measurement": "ED100", "setting": "[4]", "result": 59, "unit": "mg/kg"}]}, {"smiles": "CCCCn1c2c(c(C)cc1=O)C(=O)CCC2", "note": "[Substance H, 1-n-butyl-4-methyl-7,8-dihydro-2,5(1H,6H)-quinolinedione]", "values": [{"measurement": "ED (-1.5 degC)", "setting": "[1]", "result": 36, "unit": "mg/kg"}, {"measurement": "ED50", "setting": "[2]", "result": 50, "unit": "mg/kg"}, {"measurement": "ED50", "setting": "[3]; [6]", "result": 19.1, "unit": "mg/kg"}, {"measurement": "ED100", "setting": "[4]", "result": 101, "unit": "mg/kg"}]}, {"smiles": "CCN1C(=O)CCC2=C1CCCC2=O", "note": "[Substance I, 1-ethyl-3,4,7,8-tetrahydro-2,5(1H,6H)-quinolinedione]", "values": [{"measurement": "ED (-1.5 degC)", "setting": "[1]", "result": 22, "unit": "mg/kg"}, {"measurement": "ED50", "setting": "[2]", "result": 55, "unit": "mg/kg"}, {"measurement": "ED50", "setting": "[3]; [5]", "result": 13, "unit": "mg/kg"}, {"measurement": "ED50", "setting": "[3]; [6]", "result": 16, "unit": "mg/kg"}, {"measurement": "ED100", "setting": "[4]", "result": 70, "unit": "mg/kg"}]}, {"smiles": "Cc1cc(=O)[nH]c2c1C(=O)CCC2", "note": "[Substance D, 4-methyl-7,8-dihydro-2,5(1H,6H)-quinolinedione]", "values": [{"measurement": "ED (-1.5 degC)", "setting": "[1]", "result": 25, "unit": "mg/kg"}, {"measurement": "ED50", "setting": "[2]", "result": 129, "unit": "mg/kg"}, {"measurement": "ED50", "setting": "[3]; [5]", "result": 21, "unit": "mg/kg"}, {"measurement": "ED50", "setting": "[3]; [6]", "result": 34, "unit": "mg/kg"}, {"measurement": "LD50 at 336 h", "setting": "acute toxicity in rats", "result": 1370, "unit": "mg/kg"}, {"measurement": "ED100", "setting": "[4]", "result": 98, "unit": "mg/kg"}]}, {"smiles": "CN1C(=O)CCC2=C1CCCC2=O", "note": "[Substance C, 1-methyl-3,4,7,8-tetrahydro-2,5(1H,6H)-quinolinedione]", "values": [{"measurement": "ED (-1.5 degC)", "setting": "[1]", "result": 26, "unit": "mg/kg"}, {"measurement": "ED50", "setting": "[2]", "result": 129, "unit": "mg/kg"}, {"measurement": "ED50", "setting": "[3]; [5]", "result": 15, "unit": "mg/kg"}, {"measurement": "ED50", "setting": "[3]; [6]", "result": 21, "unit": "mg/kg"}, {"measurement": "LD50 at 336 h", "setting": "acute toxicity in rats", "result": 748, "unit": "mg/kg"}, {"measurement": "ED100", "setting": "[4]", "result": 99, "unit": "mg/kg"}, {"measurement": "LD50 at 336 h", "setting": "acute toxicity in mice", "result": 985, "unit": "mg/kg"}]}, {"smiles": "CC1CC2=C(CCCC2=O)NC1=O", "note": "(stereo not drawn) [Substance B, 3-methyl-3,4,7,8-tetrahydro-2,5(1H,6H)-quinolinedione]", "values": [{"measurement": "ED (-1.5 degC)", "setting": "[1]", "result": 35, "unit": "mg/kg"}, {"measurement": "ED50", "setting": "[2]", "result": 100, "unit": "mg/kg"}, {"measurement": "ED50", "setting": "[3]; [5]", "result": 37, "unit": "mg/kg"}, {"measurement": "ED50", "setting": "[3]; [6]", "result": 39, "unit": "mg/kg"}, {"measurement": "LD50 at 336 h", "setting": "acute toxicity in rats", "result": 659, "unit": "mg/kg"}, {"measurement": "ED100", "setting": "[4]", "result": 155, "unit": "mg/kg"}, {"measurement": "LD50 at 336 h", "setting": "acute toxicity in mice", "result": 1220, "unit": "mg/kg"}]}, {"smiles": "Cc1cc2c([nH]c1=O)CCCC2=O", "note": "[Substance E, 3-methyl-7,8-dihydro-2,5(1H,6H)-quinolinedione]", "values": [{"measurement": "ED (-1.5 degC)", "setting": "[1]", "result": 34, "unit": "mg/kg"}, {"measurement": "ED50", "setting": "[2]", "result": 102, "unit": "mg/kg"}, {"measurement": "ED50", "setting": "[3]; [5]", "result": 31, "unit": "mg/kg"}, {"measurement": "ED50", "setting": "[3]; [6]", "result": 36, "unit": "mg/kg"}, {"measurement": "ED100", "setting": "[4]", "result": 135, "unit": "mg/kg"}, {"measurement": "LD50 at 336 h", "setting": "acute toxicity in mice", "result": 825, "unit": "mg/kg"}]}, {"smiles": "Cn1c2c(ccc1=O)C(=O)CCC2", "note": "[Substance A, 1-methyl-7,8-dihydro-2,5(1H,6H)-quinolinedione]", "values": [{"measurement": "ED (-1.5 degC)", "setting": "[1]", "result": 29, "unit": "mg/kg"}, {"measurement": "ED50", "setting": "[2]", "result": 80, "unit": "mg/kg"}, {"measurement": "ED50", "setting": "[3]; [5]", "result": 8.7, "unit": "mg/kg"}, {"measurement": "ED50", "setting": "[3]; [6]", "result": 8.1, "unit": "mg/kg"}, {"measurement": "LD50 at 336 h", "setting": "acute toxicity in rats", "result": 489, "unit": "mg/kg"}, {"measurement": "ED100", "setting": "[4]", "result": 71, "unit": "mg/kg"}, {"measurement": "LD50 at 336 h", "setting": "acute toxicity in mice", "result": 767, "unit": "mg/kg"}]}]}
